CC(=O)NC1CCSC1=O (stereo not given)
solubility (mole fraction)
Settings	278.15 K	283.15 K	288.15 K	293.15 K	298.15 K	303.15 K	308.15 K	313.15 K	318.15 K	323.15 K
in 2-butoxyethanol	0.0606	0.0701	0.0776	0.0895	0.102	0.116	0.132	0.15	0.175	0.199
in 2-ethoxyethanol	0.0952	0.108	0.121	0.141	0.158	0.176	0.199	0.223	0.248	0.278
in 2-methoxyethanol	0.132	0.15	0.169	0.189	0.21	0.233	0.255	0.279	0.31	0.344
in 2-propoxyethanol	0.0753	0.0874	0.0976	0.11	0.123	0.138	0.158	0.179	0.203	0.23
in ethanol	0.0355	0.0439	0.055	0.0699	0.0866	0.107	0.132	0.164	0.201	0.243
in ethyl acetate	0.0168	0.0199	0.0235	0.0283	0.0325	0.0388	0.0455	0.0546	0.0649	0.0772
in methanol	0.0713	0.0887	0.111	0.137	0.165	0.192	0.222	0.253	0.288	0.321
in methyl acetate	0.0229	0.0271	0.033	0.0401	0.0478	0.0559	0.0673	0.081	0.0965	0.119
in n-butanol	0.0244	0.0301	0.0388	0.047	0.0574	0.0692	0.0846	0.104	0.128	0.159
in n-butyl acetate	0.0119	0.0141	0.0169	0.0194	0.0228	0.0263	0.0307	0.0364	0.0411	0.0496
in n-pentanol	0.0232	0.0294	0.0362	0.0429	0.0532	0.0646	0.0769	0.093	0.114	0.14
in n-propanol	0.0282	0.0343	0.0456	0.0553	0.0678	0.0839	0.104	0.129	0.159	0.197
in n-propyl acetate	0.0131	0.0155	0.0187	0.0217	0.0257	0.0296	0.0351	0.0411	0.0486	0.0575
